The results in this text go back to US20040265847A1, “Method for treating Alzheimer's disease” (priority 1991, published 2004).

Assay [1] has as its target T1, partially purified human brain APP (Homo sapiens, UniProt P05067).
T1 construct: from tissue; host or cells: human brain membrane extract
The assay is described as follows: partially purified brain APP binding to heparin-Sepharose, NaCl gradient elution. How it is done: (§1) APP binding to heparin-Sepharose was also studied using partially purified APP preparations derived from human brain membranes (according to the method of Moir et al, 1992) or from human serum. Washed brain membrane extract or human serum was adjusted to a NaCl concentration of 350 mM and applied to a Q-Sepharose column (5 cm×5 cm), washed with 350 mM NaCl, 50 mM Tris-Hcl, pH 7.4 (250 ml [×2 for brain membrane extract]) and eluted with 1 M NaCl 50 mM Tris-HCl, pH 7.4 (200 ml at 5 ml/min). This procedure causes an 80-fold enrichment of APP in the peak protein fractions, which are then pooled (Moir et al, 1992). The eluate (20 ml) was desalted into 25 mM Tris, pH 7.4 (30 ml) using a G25 Sephadex column (2.6 cm×40 cm). 15 ml of the product was adjusted to 50 μM Zn^2+ with 2 mM ZnCl2, 50 mM Tris-Hcl, pH 7.4 and the other 15 ml was adjusted to the same volume with 50 mM Tris-HCl, pH 7.4. 10 ml of the deslated Q-Sepharose eluate, containing 6.7 mg protein, was applied to heparin-Sepharose (1.6 cm×5 cm) at 0.35 ml/min, washed with 100 ml of loading buffer, and eluted by a 0 to 1500 mM NaCl gradient (±50 μM Zn^2+) in 52.5 ml at a flow rate of 0.35 ml/min. Fractions (1 ml) representing 20 mM NaCl increments were collected and 30 μl samples of each fraction were assayed for APP by Western blot with mAb 22C11 according to the method in Bush et al. (1990), modified by using PVDF membranes and by reducing the blocking time to 1 hour. The immunoreactive staining of the 130 kDa APP species seen on the blots was quantified by computer-assisted image capture reflectance densitometry (Bush et al., 1992). The 130 kDa reflectance signals on the blots were expressed as the ratio of the signal generated in one sample lane related to the 130 kDa APP reflectance reading of a sample of starting material present on every individual filter as an internal standard.

Assay [2] relates to human brain membrane-derived APP. As to the kind of experiment: trypsin digestion of human brain membrane-derived APP, Western blot with 22C11. The class given is biochemical. An excerpt: The proteolytic activity of trypsin (Boehringer, Mannheim) was studied to determine whether it was modulated by a range of doses of heparin (Sigma) and ZnCl2. […] Western blots for APP using the APP binding monoclonal antibody 22C11 were used to monitor the progression of the proteolytic reaction and to detect breakdown products.

A further assay relates to APP. The assay is described as follows: Effect of zinc loading upon rat brain APP. The class given is in vivo. As to conditions: 120 mg/kg injected daily for four days. The procedure: 16 week old Sprauge-Dawley male rats were injected daily for four days with 120 mg/kg ZnCl2 solution. The animals were then anaesthetized, bled by intracardiac puncture and their brains removed, homogenized and separated into membrane and soluble fractions following ultracentrifugation.

The subject of the next assay is trypsin. As to the kind of experiment: tryptic activity on fluorogenic substrate Z-F-R-AMC. The class given is biochemical. To be noted: range of doses.
The test system of the next assay is APP-degrading protease. As to the kind of experiment: Assay of APP-degrading protease (Zn^2+-enhanced degradation of plasma 130 kDa APP). The class given is biochemical, human. To be noted: heparin-Sepharose eluates, 37° C.
In assay [3] the target is T2, partially purified human serum APP (Homo sapiens, UniProt P05067).
T2 construct: from tissue; host or cells: human serum
T2 sequence (P05067 18-687 limits assumed): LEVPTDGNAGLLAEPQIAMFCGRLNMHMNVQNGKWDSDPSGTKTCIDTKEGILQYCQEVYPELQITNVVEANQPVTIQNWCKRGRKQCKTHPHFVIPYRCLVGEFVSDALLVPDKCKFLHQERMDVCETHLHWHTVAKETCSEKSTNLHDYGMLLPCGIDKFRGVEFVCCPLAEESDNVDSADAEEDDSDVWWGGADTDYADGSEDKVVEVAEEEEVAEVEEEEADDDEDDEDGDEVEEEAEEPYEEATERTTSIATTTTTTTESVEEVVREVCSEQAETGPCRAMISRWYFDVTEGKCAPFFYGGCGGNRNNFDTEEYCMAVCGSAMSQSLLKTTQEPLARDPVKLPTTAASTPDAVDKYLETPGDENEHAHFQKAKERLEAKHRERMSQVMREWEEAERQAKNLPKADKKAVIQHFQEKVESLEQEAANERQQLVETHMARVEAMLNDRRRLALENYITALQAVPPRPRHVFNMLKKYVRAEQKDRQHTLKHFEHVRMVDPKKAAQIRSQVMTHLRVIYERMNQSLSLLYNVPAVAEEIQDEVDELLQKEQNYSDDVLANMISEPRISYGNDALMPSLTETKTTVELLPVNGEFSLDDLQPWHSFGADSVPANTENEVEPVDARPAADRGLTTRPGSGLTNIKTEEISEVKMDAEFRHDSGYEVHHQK
As to the kind of experiment: partially purified serum APP binding to heparin-Sepharose. The procedure: 40-60 ml of whole blood was allowed to clot for 3 hours in plain tubes at 20° C. The clotted blood was then incubated for 16 hours at 4° C., whereupon it was centrifuged at 1500 g for 15 minutes and the supernatant removed. The serum was further centrifuged at 1500 g for 15 minutes and the cell-free supernatant removed.
as §1, with “Fractions (1 ml) representing 20 mM NaCl increments were collected and 30 μl samples of each fraction were assayed for APP by Western blot with mAb 22C11 according to the method in Bush et al. (1990), modified by using PVDF membranes and by reducing the blocking time to 1 hour.” left out

The target of assay [4] is T3, APP purified from rat brain (Rattus norvegicus, UniProt P08592).
T3 construct: from tissue; host or cells: rat brain
T3 sequence (P08592 18-770): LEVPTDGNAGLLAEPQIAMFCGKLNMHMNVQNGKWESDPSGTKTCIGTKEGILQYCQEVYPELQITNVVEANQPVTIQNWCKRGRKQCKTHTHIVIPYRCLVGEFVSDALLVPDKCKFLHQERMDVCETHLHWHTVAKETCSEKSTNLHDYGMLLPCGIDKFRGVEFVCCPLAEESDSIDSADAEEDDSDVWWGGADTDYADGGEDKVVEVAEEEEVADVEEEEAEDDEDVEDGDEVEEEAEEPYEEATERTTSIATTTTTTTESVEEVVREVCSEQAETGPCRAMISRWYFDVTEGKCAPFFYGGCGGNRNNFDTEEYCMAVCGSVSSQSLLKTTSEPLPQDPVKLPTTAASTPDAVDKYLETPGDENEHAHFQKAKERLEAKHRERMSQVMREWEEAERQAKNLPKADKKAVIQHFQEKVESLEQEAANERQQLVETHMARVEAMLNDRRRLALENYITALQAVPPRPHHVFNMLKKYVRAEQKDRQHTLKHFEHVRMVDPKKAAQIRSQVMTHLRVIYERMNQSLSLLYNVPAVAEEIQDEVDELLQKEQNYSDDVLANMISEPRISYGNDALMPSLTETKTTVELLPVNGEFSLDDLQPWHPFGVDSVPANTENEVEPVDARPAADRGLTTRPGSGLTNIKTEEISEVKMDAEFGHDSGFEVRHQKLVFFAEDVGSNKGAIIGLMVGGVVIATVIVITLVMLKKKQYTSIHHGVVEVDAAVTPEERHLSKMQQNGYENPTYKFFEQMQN
The assay is described as follows: heparin binding to APP in a Biosensor system. How it is done:
The effect of Zn^2+ in modulating heparin binding to APP was also studied in a Biosensor system. […] This effect was most pronounced and most specific for Zn^2+, as opposed to the absence of divalent cations or the presence of Ca^2+, Mg^2+ or Co^2+, and was most evident when the heparin:APP ratio was low. […] Zn^2+ at 50 nM promoted a =170% increase in heparin binding, the effect saturating at 70 μM.

Assay [5] relates to human brain full-length APP. The assay is described as follows: ^125I-APP binding to heparin-Sepharose. The procedure:
100 kDa human brian full-length APP was iodinated by the Chloramine-T method. Iodinated APP (^125I-APP) was then separated from labelling reagents by Sephacryl G25 chromatography.
The column was then washed with 6 ml buffer 1 and the APP eluted with aliquots of high-NaCl buffers.

T1 sequence (P05067 18-770): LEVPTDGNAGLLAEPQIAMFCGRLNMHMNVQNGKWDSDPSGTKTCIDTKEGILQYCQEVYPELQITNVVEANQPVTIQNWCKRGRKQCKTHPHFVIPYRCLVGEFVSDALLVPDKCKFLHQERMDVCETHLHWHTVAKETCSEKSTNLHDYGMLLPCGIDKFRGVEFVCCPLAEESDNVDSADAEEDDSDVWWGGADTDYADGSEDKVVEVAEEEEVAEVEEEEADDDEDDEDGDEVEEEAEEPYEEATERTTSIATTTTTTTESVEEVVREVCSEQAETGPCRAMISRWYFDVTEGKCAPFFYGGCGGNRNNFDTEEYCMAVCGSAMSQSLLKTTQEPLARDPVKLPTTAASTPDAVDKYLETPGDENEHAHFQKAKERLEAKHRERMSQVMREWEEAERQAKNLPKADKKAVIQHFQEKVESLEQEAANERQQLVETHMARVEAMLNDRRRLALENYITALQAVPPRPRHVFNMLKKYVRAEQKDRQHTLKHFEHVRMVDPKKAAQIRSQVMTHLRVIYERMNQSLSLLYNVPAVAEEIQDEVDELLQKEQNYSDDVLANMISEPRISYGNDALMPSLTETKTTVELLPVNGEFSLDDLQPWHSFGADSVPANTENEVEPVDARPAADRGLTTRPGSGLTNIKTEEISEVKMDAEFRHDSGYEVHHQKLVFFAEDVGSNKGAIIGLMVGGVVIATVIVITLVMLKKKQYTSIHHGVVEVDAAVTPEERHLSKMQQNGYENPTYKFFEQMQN

For the compound `[Cl-].[Cl-].[Zn+2]` [Zn^2+, ZnCl2], the “increase in amount of APP recovered in all fractions” value in assay [1] (50 μM Zn^2+) is 48%. Further, the “amount of APP recovered in all fractions” value in assay [1] (50 μM Zn^2+ (1110 without)) is listed as 1644 reflectance units. For the same compound, the “reduction in amount of eluted protein” value in assay [1] (50 μM Zn^2+, protein assay) came to 13%. Further, the “Zn^2+ concentration that completely abolished the protective effect of heparin” value in assay [2] (with heparin (1 μM)) is given as “above 1 μM”. The “effect on rate of APP proteolysis by trypsin” value in assay [2] (without heparin, Zn^2+ up to 100 μM, EDTA 1 mM) is listed as “had no effect”. In the assay with APP, the “new APP band in plasma” value was “development of a novel 80 kDa band in plasma”. Also, in the assay on APP (plasma and brain preparations vs litter-mates), the “increase in the amounts of all forms of APP” value is reported as 80%. The “effect on tryptic activity” value with trypsin was “left tryptic activity unaltered”. Besides, in the assay with APP-degrading protease, the “effect on proteolysis of plasma APP” value is listed as “Proteolysis was accelerated”. Further, the “effect on proportion of higher-affinity binding of serum-derived APP” value in assay [3] is “did not increase the proportion of higher-affinity binding”. Besides, the “increase in APP recovered from the NaCl elution” value in assay [3] (50 μm Zn^2+) came out at 10%. Moreover, the “increase in amount of protein recovered” value in assay [3] (50 μm Zn^2+, protein assay) was 12%. In addition, the “concentration at which effect on heparin binding saturates” value in assay [4] is 70 µM. Also, in assay [4] (100 μM), the “effect on heparin binding to APP” value is reported as “strongly promote heparin binding to APP”. In assay [4] (Zn^2+ at 50 nM), the “increase in heparin binding to rat brain APP” value turned out to be 170%. In addition, the “concentration at which increase in ^125I-APP binding to heparin reached a plateau” value in assay [5] amounted to 75 µM. For the same compound, the “increase in ^125I-APP recovered from the 50-2000 mM NaCl elution fraction” value is on record as “approximately 3 fold” in assay [5] (50 μM Zn^2+) and 4.5 fold in assay [5] (100 μM Zn^2+). For the same compound, the “increase in amount of brain APP binding to heparin” value in assay [5] (50 μM Zn^2+) turned out to be 50%.
